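Exposure lasted 48 hours, with cells grown in 96-well plates and compounds tested at five concentrations. GI50 = concentration required for 50% inhibition of growth.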 Active and inactive are the calls of the source. Rule as the data show it: active = GI50 up to about 1.1 µM and inactive = higher.
Assays:
Experiment in all cases: NCI tumour cell line growth inhibition, 48 h
DMS-273 = test system: DMS-273
HCT-116 = test system: HCT-116
MOLT-4 = test system: MOLT-4
ACHN = test system: ACHN
DLD-1 = test system: DLD-1
SF-539 = test system: SF-539
COLO 205 = test system: COLO 205
UACC-257 = test system: UACC-257
K562 = test system: K562
OVCAR-5 = test system: OVCAR-5
EKVX = test system: EKVX
HL-60 = test system: HL-60
SW-620 = test system: SW-620
SK-MEL-2 = test system: SK-MEL-2
HOP-92 = test system: HOP-92
786-0 = test system: 786-0
HT-29 = test system: HT-29
A549 = test system: A549
RXF 393 = test system: RXF 393
LOX IMVI = test system: LOX IMVI
RXF 631 = test system: RXF 631
SK-MEL-28 = test system: SK-MEL-28
M14 = test system: M14
OVCAR-3 = test system: OVCAR-3
LXFL 529 = test system: LXFL 529
NCI-H522 = test system: NCI-H522
NCI-H226 = test system: NCI-H226
M19-MEL = test system: M19-MEL
HCC 2998 = test system: HCC 2998
CCRF-CEM = test system: CCRF-CEM
NCI-H460 = test system: NCI-H460
RPMI-8226 = test system: RPMI-8226
SNB-75 = test system: SNB-75
SF-268 = test system: SF-268
HCT-15 = test system: HCT-15
CAKI-1 = test system: CAKI-1
KM-20L2 = test system: KM-20L2
OVCAR-8 = test system: OVCAR-8
KM12 = test system: KM12
SN12C = test system: SN12C
NCI-H23 = test system: NCI-H23
U-251 = test system: U-251
TK-10 = test system: TK-10
SR = test system: SR
OVCAR-4 = test system: OVCAR-4
Malme-3M = test system: Malme-3M
SF-295 = test system: SF-295
UO-31 = test system: UO-31
IGROV-1 = test system: IGROV-1
HOP-62 = test system: HOP-62
SNB-19 = test system: SNB-19
SNB-78 = test system: SNB-78
UACC-62 = test system: UACC-62
SK-MEL-5 = test system: SK-MEL-5
XF498 = test system: XF498

Measured: GI50

NC(=O)CCC(Nc1c2ccccc2nc2ccccc12)C(=O)O (stereo not drawn)
inactive: DMS-273 > 100 µM | HCT-116 91 µM | MOLT-4 58.1 µM | ACHN 91 µM | DLD-1 88.3 µM | SF-539 > 100 µM | COLO 205 > 100 µM | UACC-257 65.8 µM | K562 45.7 µM | OVCAR-5 > 100 µM | EKVX 71.3 µM | HL-60 15.3 µM | SW-620 > 100 µM | SK-MEL-2 > 100 µM | HOP-92 41.1 µM | 786-0 > 100 µM | HT-29 93.1 µM | A549 > 100 µM | RXF 393 > 100 µM | LOX IMVI 63.7 µM | RXF 631 77.3 µM | SK-MEL-28 > 100 µM | M14 > 100 µM | OVCAR-3 56.8 µM | LXFL 529 > 100 µM | NCI-H522 > 100 µM | NCI-H226 > 100 µM | M19-MEL > 100 µM | HCC 2998 > 100 µM | CCRF-CEM > 100 µM | NCI-H460 86.9 µM | RPMI-8226 17.2 µM | SNB-75 > 100 µM | SF-268 > 100 µM | CAKI-1 > 100 µM | KM-20L2 > 100 µM | OVCAR-8 > 100 µM | KM12 > 100 µM | SN12C > 100 µM | NCI-H23 > 100 µM | U-251 > 100 µM | TK-10 > 100 µM | SR 55.2 µM | OVCAR-4 4.14 µM | Malme-3M > 100 µM | SF-295 > 100 µM
> 100 µM: HCT-15

O=C1CCC(=O)N1CNc1cccc(NCN2C(=O)CCC2=O)c1
inactive: DMS-273 61.1 µM | HCT-116 64.3 µM | MOLT-4 52.6 µM | ACHN 71.4 µM | DLD-1 > 100 µM | SF-539 > 100 µM | COLO 205 > 100 µM | UACC-257 71.6 µM | K562 45.6 µM | OVCAR-5 > 100 µM | EKVX > 100 µM | HL-60 20.1 µM | SW-620 > 100 µM | SK-MEL-2 > 100 µM | UO-31 > 100 µM | HOP-92 > 100 µM | IGROV-1 87.9 µM | HOP-62 > 100 µM | 786-0 > 100 µM | HT-29 > 100 µM | SNB-19 > 100 µM | A549 > 100 µM | SNB-78 > 100 µM | RXF 393 > 100 µM | UACC-62 48.5 µM | RXF 631 > 100 µM | SK-MEL-28 > 100 µM | M14 > 100 µM | OVCAR-3 > 100 µM | LXFL 529 56.8 µM | NCI-H522 > 100 µM | M19-MEL > 100 µM | HCC 2998 > 100 µM | CCRF-CEM 29.6 µM | NCI-H460 > 100 µM | RPMI-8226 17.3 µM | SK-MEL-5 > 100 µM | SNB-75 12.9 µM | SF-268 70 µM | KM-20L2 11 µM | OVCAR-8 > 100 µM | KM12 > 100 µM | SN12C > 100 µM | XF498 > 100 µM | NCI-H23 > 100 µM | U-251 > 100 µM | TK-10 > 100 µM | OVCAR-4 > 100 µM | Malme-3M > 100 µM | SF-295 > 100 µM
61 µM: HCT-15

Reference: ChEMBL document CHEMBL1201862, “PubChem BioAssay data set” (2004)
